SMILES strings stand for the structures.

The assay relates to SNU-C5/WT. Conditions: mouse, in vivo.

Regarding `O=c1[nH]cc(F)c(=O)[nH]1` [5FU, 5-fluorouracil], the “cell proliferation of tumor cells (Ki67 fluorescence staining)” value is listed as “not able to decrease the proliferative ability of tumor cells” and the “tumor formation (tumor volume)” value is on record as “does not effectively inhibit tumor formation”.

For the origin of these results see patent publication US20220380477A1 (priority 2019, published 2022).
